Reference: patent US12070452B2, “Compounds targeting HSP110 protein for cancer treatment” (INSERM (Institut National de la Santé et de la Recherche …, priority 2018, dated 2024)
“Also recorded” adds a separate entry of the source.

Key:
human protein HSP110 = biological target: T1, human protein HSP110 (Homo sapiens, UniProt Q92598); assay: HSP110 anti-aggregation function (luciferase substrate test); type: biochemical; conditions: human HSP110 1.5 μM with firefly luciferase, 30 min at 42° C.; read-out: IC50 of HSP110 anti-aggregating activity
T1 construct: DNA coding the NBD-HSP110 (from human-HSP110)
Description: Anti-aggregation function of HSP110 was evaluated as described by O H et al (The Journal of biological chemistry 274, 15712-15718 (1999)). The human protein HSP110 (obtained as described above) at a concentration of 1.5 μM was incubated with firefly luciferase (from Sigma—from Photinus pyralis) in reaction buffer and heated in water bath for 30 min at 42° C.
Compounds of the present invention were added in reaction buffer to achieve the indicated concentrations and the final DMSO concentration was held constant at 1%. The heated reaction was diluted 10 times into buffer containing 60% of rabbit reticulocytelysate and incubated for 2 hours. The luciferase activity was measured by diluting 5 times the solution in HEPES and adding 5 μL of the solution in luciferase substrate (50 μL of Luciferase Assay System—Promega E1501 diluted in HEPES). The bioluminescence was reading with Envision Perkin Elmer.
The percentage of activity (x) was calculated by using the following equation: x=[(A−B)/(C−B)]×100, where (A) is the luciferase luminescence in presence of compounds of the invention, (B) in absence of HSP110 and (C) in presence of DMSO (Control). The percentage of total folding HSP110-promoted (mean=36%) was calculated considering as 100% the luminescence of luciferase incubated with HSP110 without heat shock. The IC50 were calculated from the dose-response curves, which were fitted by GraphPrism (Equation: Y=100/(1+10^((Log IC50−X)*HillSlope)).

phosphorylated STAT3 = assay: P-STAT3 level in SW480 cells (immunoblot quantification); type: cell-based, human; conditions: 10 μM, 48 h, normalized by actin
Description: Results for SW480 cells treated during 48 h with non-relevant antibody (called NT), compound 52, compound 33, compound 51 and comparative compound 61 at 10 μM, and sh110 cells correspond to the third fourth, fifth, sixth and last columns from the left to the right.
FIG. 3B: Quantification of P-STAT3 level (in percentage) normalized by actin. […] (Ordinate: Percentage of P-STAT3 level (scale 50)
Immunoprecipitation test were realized on human colorectal cancer cells (SW480 and HCT116 cell lines), using a control depleted in HSP110 called Sh110 and a not depleted cells in HSP110. STAT3 phosphorylation is then […] by compounds 33 and 52. Depletion of HSP110 in the negative control blocked the phosphorylation of STAT3 without affecting STAT3 overall levels (FIGS. 2 and 3).

SW480 cells = assay: Cell proliferation, Cell Trace Violet flow cytometry, SW480; type: cell-based, human; conditions: SW480 cells with shRNA control, 10 μM, 96 h
Description: FIG. 4A: Relative quantification of cell proliferation in SW480 cells transfected with shRNA for shRNA control (shCtrl) (from the first to the fourth columns from left to right) or HSP110-silencing (sh110) (from the fifth to the last columns, from left to right) treated with Ctrl (DMSO), compound 33, compound 52, and comparative compound 61 at a concentration of 10 μM during 96 h (Histogram columns from the left to the right). Ordinate: Percentage of SW480 cell proliferation (scale 20) for the upper figure; Statistical analysis has been performed by ANOVA **: (p<0.05); ***: p<0.005. Western blot of HSP110 and actin (first and second line of blots) for the shCtrl SW480 cells and sh110 SW480 cells (first and second columns).
Colorectal cells lines were purchased from the American Type Culture Collection. CT-26 and HCT116 were cultured in Roswell Park Memorial Institute 1640 medium. […]
Proliferation was determined by staining cells with Cell Trace Violet (Invitrogen-C34557) according to the manufacturer's procedure. Cell divisions were detected over 96 h by flow cytometry (LSRII cytometer) and the number of cell generations was estimated by ModFit software. […]

HSP110/Myd88 interaction = biological target: T2, HSP110/Myd88 interaction (Homo sapiens, UniProt Q92598); assay: Immunoprecipitation of HSP110/Myd88 in DLBCL cell line; type: cell-based; conditions: IP Myd88, Western Blot
T2 construct: endogenous in cells
Description: FIG. 10A: Immunoprecipitation (IP) analysis of HSP110 (first line), Myd88 (second line), heavy chains (third line) and actin (fourth line) in large B cell lymphoma cell lines (DLBCL).
Left part of FIG. 10A (“Inputs”): treated with (from left to right column of the left part of FIG. 10A) DMSO, compound 52 (5052), compound 33 (5033) and compound 61 (5061) (Negative control);
Middle part of FIG. 10A (“IP Myd88”): treated with (from left to right column of the middle part of FIG. 10A) DMSO, compound 52, compound 33 and compound 61 (as the negative control); Myd88 was immunoprecipitated with an antibody specifically directed against Myd88.
MyD88 was immuno-precipitated from the cell line which has been non-treated or treated with the HSP110 inhibitors.

NFκB signaling pathway = assay: Western blot of NFκB signaling and Myd88 in DLBCL cell lines; type: cell-based, human; conditions: for IkB phosphorylation (P-IKB): two DLBCL cell lines, 24 h of treatment
Description: FIG. 10B: Expression of HSP110 (first line), P-P65 (S276) (second line), P65 (third line), Myd88 (fourth line) and Actin (fifth line) in TMD8 human B cell lymphoma cell line (left part of FIG. 10B) or in HBL1 human diffuse large B-cell lymphoma cell line (right part of FIG. 10B), both cell lines being treated with Control (DMSO) and compound 33.
FIG. 10C: Expression, after 24 h of treatment, of HSP110 (first line), P-IKB (second line), IKB (third line) and Actin (fourth line) in TMD8 human B cell lymphoma cell line (right part of FIG. 10C) or in OCI-Ly3 human diffuse large B-cell lymphoma cell line (left part of FIG. 10C), both cell lines being treated with Control (DMSO), control compound 61, compound 52 and compound 33.

T1 sequence (Q92598 whole entry, looked up): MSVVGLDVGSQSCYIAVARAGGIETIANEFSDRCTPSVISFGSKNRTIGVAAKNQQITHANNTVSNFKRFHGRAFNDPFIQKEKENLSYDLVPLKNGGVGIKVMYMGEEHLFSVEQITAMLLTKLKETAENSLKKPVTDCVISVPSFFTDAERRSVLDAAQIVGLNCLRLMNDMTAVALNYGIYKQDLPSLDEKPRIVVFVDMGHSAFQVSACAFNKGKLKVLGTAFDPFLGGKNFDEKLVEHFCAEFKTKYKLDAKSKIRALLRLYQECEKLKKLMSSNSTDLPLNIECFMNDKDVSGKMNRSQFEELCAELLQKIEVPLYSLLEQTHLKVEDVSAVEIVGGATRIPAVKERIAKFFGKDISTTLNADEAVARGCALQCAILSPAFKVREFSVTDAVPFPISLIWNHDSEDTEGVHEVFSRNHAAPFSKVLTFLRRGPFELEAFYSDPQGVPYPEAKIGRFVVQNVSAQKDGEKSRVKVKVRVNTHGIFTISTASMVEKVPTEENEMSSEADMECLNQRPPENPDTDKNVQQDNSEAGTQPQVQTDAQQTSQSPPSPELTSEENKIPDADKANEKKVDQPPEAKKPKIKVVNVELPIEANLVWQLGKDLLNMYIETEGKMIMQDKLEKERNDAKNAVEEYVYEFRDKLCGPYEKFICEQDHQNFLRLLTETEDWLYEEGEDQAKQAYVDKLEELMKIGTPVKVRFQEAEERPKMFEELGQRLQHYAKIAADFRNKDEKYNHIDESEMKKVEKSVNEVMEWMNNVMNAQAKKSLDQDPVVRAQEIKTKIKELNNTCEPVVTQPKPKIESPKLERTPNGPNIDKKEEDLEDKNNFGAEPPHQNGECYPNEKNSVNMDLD
T2 sequence (Q92598 2-858 limits assumed): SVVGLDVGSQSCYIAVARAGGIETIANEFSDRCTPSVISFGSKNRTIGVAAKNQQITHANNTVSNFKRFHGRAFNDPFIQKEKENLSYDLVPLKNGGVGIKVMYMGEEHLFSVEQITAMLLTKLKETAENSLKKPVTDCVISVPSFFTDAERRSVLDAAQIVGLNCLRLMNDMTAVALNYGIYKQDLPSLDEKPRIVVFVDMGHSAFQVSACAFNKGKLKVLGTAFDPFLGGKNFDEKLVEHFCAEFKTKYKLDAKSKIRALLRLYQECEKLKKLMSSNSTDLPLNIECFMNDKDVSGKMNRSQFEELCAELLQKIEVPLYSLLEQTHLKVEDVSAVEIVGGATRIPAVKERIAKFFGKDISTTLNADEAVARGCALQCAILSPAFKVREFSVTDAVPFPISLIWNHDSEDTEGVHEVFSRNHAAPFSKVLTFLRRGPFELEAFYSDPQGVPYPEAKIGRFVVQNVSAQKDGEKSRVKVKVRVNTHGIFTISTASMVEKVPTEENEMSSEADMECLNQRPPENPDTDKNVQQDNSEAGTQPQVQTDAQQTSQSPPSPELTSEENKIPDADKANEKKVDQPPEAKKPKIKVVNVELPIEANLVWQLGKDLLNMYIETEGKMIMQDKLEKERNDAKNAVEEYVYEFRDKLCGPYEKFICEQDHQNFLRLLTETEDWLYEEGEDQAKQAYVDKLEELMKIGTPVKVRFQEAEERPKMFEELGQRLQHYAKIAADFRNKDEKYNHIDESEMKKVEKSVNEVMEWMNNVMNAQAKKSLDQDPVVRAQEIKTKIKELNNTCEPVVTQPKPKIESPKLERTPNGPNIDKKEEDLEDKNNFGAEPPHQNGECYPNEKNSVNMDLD

COc1ccc(-c2ncc(-c3ncc(-c4cc(OC)c(OC)c(OC)c4)cc3/C=C/c3ccccc3)cc2C)cc1OC [compound 33, (E)-6′-(3,4-Dimethoxyphenyl)-5′-methyl-3-styryl-5-(3,4,5-trimethoxyphenyl)-2,3′-bipyridine]
IC50 (human protein HSP110): 58.3 ± 1.7 µM | P-STAT3 level (phosphorylated STAT3): ~60% | hampering of cell proliferation (SW480 cells): 60% | HSP110/Myd88 interaction (HSP110/Myd88 interaction): abrogate | Myd88 expression (NFκB signaling pathway; TMD8 and HBL1 DLBCL cell lines): reduces | NFκB signaling pathway (P-p65) (NFκB signaling pathway; TMD8 and HBL1 DLBCL cell lines): reduces; also recorded: strong decrease | IkB phosphorylation (P-IKB) (NFκB signaling pathway): decrease

COc1cc(-c2cnc(-c3cnc(-c4cc(OC)c(OC)c(OC)c4)c(C)c3)c(/C=C/c3ccccc3)c2)cc(OC)c1OC [compound 52, (E)-5′-Methyl-3-styryl-5,6′-bis(3,4,5-trimethoxyphenyl)-2,3′-bipyridine]
IC50 (human protein HSP110): 86 ± 1.5 µM | P-STAT3 level (phosphorylated STAT3): about 20% | hampering of cell proliferation (SW480 cells): 82% | HSP110/Myd88 interaction (HSP110/Myd88 interaction): abrogate | NFκB signaling pathway (P-p65) (NFκB signaling pathway; TMD8 and HBL1 DLBCL cell lines): strong decrease | IkB phosphorylation (P-IKB) (NFκB signaling pathway): decrease
